In PMC8125762, “Molecular Regulation of Betulinic Acid on α3β4 Nicotinic Acetylcholine Receptors” (Molecules, 2021):
Where “and” joins values, the source holds several entries; their conditions need not be identical. Equal entries are not always repeated.

Experiments:
[1] = target: T1, bovine α3β4 nicotinic acetylcholine receptors (Bos taurus, UniProt Q07263+Q8SPU6); assay: Two-electrode voltage clamp of ACh-induced inward current (IACh), wild-type α3β4 nAChRs expressed in Xenopus oocytes; assay type: cell-based; conditions: for IC50: read-out: IC50 (half-maximal inhibitory response concentration)
T1 construct: host or cells: Xenopus laevis oocytes injected with in vitro transcribed mRNA
Procedure: (§1) Bovine cholinergic receptor nicotinic α3 subunit (gene accession number: 282702) and β4 subunit (gene accession number: 282181) were obtained from OriGene (Rockville, State Abbr. USA). All reagents, including ACh, MEC, and BA, were purchased from Sigma-Aldrich (St. Louis, MO, USA). All reagent stocks used in electrophysiological experiments were dissolved in dimethyl sulfoxide (DMSO) with the final concentration of DMSO not exceeding 0.01%. Frogs (Xenopus laevis) used in these experiments were obtained from the Korean Xenopus Resource Center for Research (KXRCR000001) and used according to appropriate standards.
(§2) All experiments were performed according to appropriate standards. After anesthetizing frogs on ice preoperatively, oocytes were extracted. Outer layers of oocytes were removed with OR-2 (Oocyte Ringer 2 solution) (82.5 mM NaCl, 2 mM KCl, 1 mM MgCl2, 5 mM HEPES, pH 7.4) containing collagenase II (2 mg/mL) in a room temperature shaker. Only stage V–VI oocytes were selected and used in this study. These oocytes were incubated in ND96 incubation buffer ([…] NaCl, 2 mM KCl, 1 mM MgCl2, 1.8 mM CaCl2, 5 mM HEPES, 2.5 mM sodium pyruvate, and […] gentamycin, pH 7.4) at 18 °C prior to mRNA injection.
(§3) Bovine α3β4 nAChRs cDNAs were restricted using appropriate restriction sites. Bovine α3β4 nAChRs mRNA was then subjected to in vitro transcription using a T7 polymerase kit (mMESSAGE mMACHINE T7 Transcription Kit; Thermo Fisher Scientific, Waltham, MA, USA) followed by injection into oocytes. A glass needle filled with mineral oil was used to install onto a nanoinjector (Drummond Scientific, Broomall, PA, USA). After incubating for 1–3 days, mRNA-injected oocytes were used for electrophysiology experiments.
Two-electrode voltage clamp (TEVC) experiments were performed using oocytes infused with α3β4 nAChR mRNA and cultured according to appropriate criteria. Each oocyte was penetrated with a microelectrode filled with 3M KCl at a resistance of 0.2 MΩ. All experiments were performed at room temperature using a two-electrode voltage clamp (OC-725C; Warner Instruments, Hamden, CT, USA) with a Digidata 1322A. The holding potential of the oocyte membrane potential was −80 mV. ACh and BA used in the experiment were diluted with ND96 buffer to appropriate concentrations. The perfusion rate was about 2 mL per minute. The induced-inward current was converted to digital data with the pClamp 10 software (Axon Instruments, Union City, CA, USA) for further analysis.
The current-voltage relationship was measured by changing the holding potential using a ramp protocol. Voltages ranging from −100 mV to +60 mV were applied to injected oocytes to measure the voltage ramp trace. The values were converted using Clampfit 9.0 (Molecular Devices, San Jose, CA, USA).
Concentration-response curve data were analyzed using SigmaPlot 10.0 software. Equation data were obtained using OriginPro 9.0 software (Origin, MA, USA) and fitted using the Hill equation y = Vmin + (Vmax − Vmin)*[x]^n/([IC50]^n + [x]^n), where Vmax and Vmin were the maximum and minimum current, respectively, x was the concentration of ACh or BA, n was the coefficient of interaction, and IC50 was the concentration of BA that produced half the maximum inhibitory effect. p-values < 0.05 were considered statistically significant.

[2] = target: T2, Wild α3 + β4 (I263A) nicotinic acetylcholine receptor (Bos taurus, UniProt Q07263+Q8SPU6, I284A); assay: Two-electrode voltage clamp, single-mutant wild α3 + β4 (I263A) nAChR in Xenopus oocytes; assay type: cell-based, bovine; conditions: 100 μM ACh, holding potential −80 mV
T2 construct: host or cells: Xenopus laevis oocytes injected with mRNA; mutant made by site-directed mutagenesis
Procedure: as §1, §2, §3
(§4) Using α3 and β4 subunit cDNAs, point mutation was performed by PCR with Pfu DNA polymerase (Quikchange II Site-Directed Mutagenesis Kit). After designing a chimeric primer for mutation, optimal PCR conditions were determined. DpnI was added to remove methylated cDNA. […]
(§5) Concentration-response curve data were analyzed using SigmaPlot 10.0 software. […]

[3] = target: T3, α3 (L257A) + β4 (I263A) nicotinic acetylcholine receptor (Bos taurus, UniProt Q07263+Q8SPU6, I284A/L278A); assay: Two-electrode voltage clamp, double-mutant α3 (L257A) + β4 (I263A) nAChR in Xenopus oocytes; assay type: cell-based, bovine; conditions: 100 μM ACh, holding potential −80 mV
T3 construct: host or cells: Xenopus laevis oocytes injected with mRNA; mutants made by site-directed mutagenesis
Procedure: as §1, §2, §3, §4, §5

[4] = target: T4, α3 (L257A) + Wild β4 nicotinic acetylcholine receptor (Bos taurus, UniProt Q07263+Q8SPU6, L278A); assay: Two-electrode voltage clamp, single-mutant α3 (L257A) + wild β4 nAChR in Xenopus oocytes; assay type: cell-based, bovine; conditions: 100 μM ACh, holding potential −80 mV
T4 construct: host or cells: Xenopus laevis oocytes injected with mRNA; mutant made by site-directed mutagenesis
Procedure: as §1, §2, §3, §4, §5

[5] = wild-type, co-applied with 100 μM ACh, holding potential −80 mV

T1 sequence (Q07263 22-495): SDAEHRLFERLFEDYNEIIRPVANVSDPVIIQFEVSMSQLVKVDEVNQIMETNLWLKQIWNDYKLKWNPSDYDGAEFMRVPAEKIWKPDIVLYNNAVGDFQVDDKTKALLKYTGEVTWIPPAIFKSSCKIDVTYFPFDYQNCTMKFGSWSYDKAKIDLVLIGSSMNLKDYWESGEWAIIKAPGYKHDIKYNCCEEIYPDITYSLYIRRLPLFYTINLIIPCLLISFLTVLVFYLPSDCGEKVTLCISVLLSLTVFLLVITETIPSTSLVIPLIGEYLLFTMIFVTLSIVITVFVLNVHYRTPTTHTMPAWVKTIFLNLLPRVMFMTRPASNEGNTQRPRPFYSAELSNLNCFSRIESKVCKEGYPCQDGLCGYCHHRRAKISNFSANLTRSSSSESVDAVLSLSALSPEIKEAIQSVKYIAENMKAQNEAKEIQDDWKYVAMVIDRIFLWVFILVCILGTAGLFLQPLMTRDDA
T1 sequence (Q8SPU6 20-496): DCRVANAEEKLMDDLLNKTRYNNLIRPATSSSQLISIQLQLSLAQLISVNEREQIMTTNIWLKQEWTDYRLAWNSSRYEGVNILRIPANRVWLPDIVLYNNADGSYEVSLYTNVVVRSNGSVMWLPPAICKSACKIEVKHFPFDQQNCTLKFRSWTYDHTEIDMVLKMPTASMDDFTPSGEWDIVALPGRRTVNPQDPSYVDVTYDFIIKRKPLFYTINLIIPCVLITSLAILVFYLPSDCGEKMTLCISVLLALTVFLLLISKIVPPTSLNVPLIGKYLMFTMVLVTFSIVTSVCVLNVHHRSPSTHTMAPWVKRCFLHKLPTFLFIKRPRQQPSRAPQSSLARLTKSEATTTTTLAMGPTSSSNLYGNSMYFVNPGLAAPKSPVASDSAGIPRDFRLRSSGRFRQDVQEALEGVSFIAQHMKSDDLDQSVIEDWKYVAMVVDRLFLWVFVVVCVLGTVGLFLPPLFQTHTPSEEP
T2 sequence (Q07263 22-495, stated change not applied): as the sequence (Q07263 22-495) above
T2 sequence (Q8SPU6 20-496 I284A): as the sequence (Q8SPU6 20-496) above, with I265A counted along it
T4 sequence (Q07263 22-495 L278A): as the sequence (Q07263 22-495) above, with L257A counted along it
T4 sequence (Q8SPU6 20-496, stated change not applied): as the sequence (Q8SPU6 20-496) above
T3 sequence (Q07263 22-495 L278A): as the sequence (Q07263 22-495) above, with L257A counted along it
T3 sequence (Q8SPU6 20-496 I284A): as the sequence (Q8SPU6 20-496) above, with I265A counted along it

Question: `CNC1(C)C2CCC(C2)C1(C)C` (stereo not shown) [MEC, mecamylamine, reference compound] was tested. Which inhibition at 10 µM ([1]; MEC 10 μM added at the same time as 100 μM ACh, holding potential −80 mV, read-out: inhibition of IACh (acetylcholine-induced inward peak current)) did it give?
Answer: ~100%

Question: And the “Hill coefficient (nH)” value [1, 5]?
Answer: 1.5 ± 0.1

Question: What about the IC50 [1, 5] of the same compound?
Answer: 1.5 µM

Question: With `CC(=O)OCC[N+](C)(C)C` [ACh, acetylcholine] as the compound, how does the EC50 ([1]; in the absence of BA, holding potential −80 mV) read?
Answer: 9.4 ± 1.25 µM

Question: What about the Emax ([1]; read-out: maximum efficacy of ACh-induced inward current (Emax)) of the same compound?
Answer: 101 ± 1.47%

Question: Which IC50 [2] does the source give for `C=C(C)[C@@H]1CC[C@]2(C(=O)O)CC[C@]3(C)[C@H](CC[C@@H]4[C@@]5(C)CC[C@H](O)C(C)(C)[C@@H]5CC[C@]43C)[C@@H]12` [BA, 3β, hydroxy-lup-20 (29) -en-28-oic acid] here?
Answer: ~13.4 µM and 13.4 µM

Question: What about the Imax [2] of the same compound?
Answer: 33.1 ± 3.3%

Question: And the “nH (Hill coefficient)” value [2]?
Answer: 2.7 ± 1.0

Question: And the IC50 [3]?
Answer: ~26.2 µM

Question: And the Imax [3]?
Answer: 7.4%

Question: What about the “nH (Hill coefficient)” value [3] of the same compound?
Answer: 2

Question: What about the “decrease of efficacy of acetylcholine-induced inward current” value ([1]; 10 μM BA compared to 0 μM BA) of the same compound?
Answer: about 60%

Question: And the “reversible potential (current-voltage relationship)” value ([1]; ACh 100 μM and BA co-administered, voltage ramp −100 to +60 mV)?
Answer: about −10 mV

Question: And the reversibility of inhibition ([1]; ACh added again after BA co-administration)?
Answer: reversible

Question: What about the “inhibition percentage of nAChRs” value ([1]; BA 100 μM co-applied with 100 μM ACh, holding potential −80 mV) of the same compound?
Answer: 89.2 ± 8.2%

Question: And the “manner of inhibition versus ACh” value ([1]; different ACh concentrations with fixed BA 3 μM or 10 μM)?
Answer: non-competitive

Question: And the “Hill coefficient (nH)” value [1, 5]?
Answer: 0.9 ± 0.1

Question: What about the Imax [1, 5] of the same compound?
Answer: 101.59 ± 5.98% and 101.5 ± 5.9%

Question: And the IC50 [1, 5]?
Answer: 12.9 µM and 12.8 µM

Question: What about the IC50 [4] of the same compound?
Answer: 18.6 µM

Question: What about the Imax [4] of the same compound?
Answer: 48.9 ± 2.7%

Question: And the “nH (Hill coefficient)” value [4]?
Answer: 1.6 ± 0.1
